# Patent US20230220047A1, “PEPTIDES FOR TREATMENT OF SEPSIS AND CANCER” (NORWEGIAN UNIVERSITY OF SCIENCE AND TECHNOLOGY (NTNU), priority 2020, published 2023)
# Legend:
# murine TLR7 = test: TLR7-mediated cytokine expression in murine macrophages (R848); type: cell-based, mouse; details: R848 (data not shown)
# Text: Thus, P7-Pen interferes with signaling initiated by human TLR7 and TLR8, but has no effect on signaling via murine TLR7 (murine TLR8 is believed to be non-functional).
# TLR9 = type: cell-based, human; details: 15 μM, 1 h pre-treatment, CpG 2006
# Protocol: CpG 2006 (10 μM) was used as specific TLR9 ligand. (A) Results of LDH assay on SNs from stimulated cells. (B-E) Results of qPCR analysis of cytokine expression with TaqMan probes. (F) Results of ELISA for secreted IL-113 levels. Cells were pre-treated with 15 μM peptides for 1 h, followed by addition of CpG 2006 to the cell culture media.
# We then tested whether P7-Pen could alter signaling via another endosomal PRR: TLR9, which recognises specific unmethylated CpG motifs prevalent in microbial DNA. In humans, TLR9 is almost exclusively expressed in B cells and plasmacytoid dendritic cells (pDC), while in mice TLR9 is expressed more widely, including in myeloid immune cells. To test the effect of P7-Pen on signaling via human TLR9 we used a model system of THP-1 cells expressing an inducible TLR9^CHERRY construct. 48 hr after induction of TLR9 expression by doxycycline, undifferentiated THP-1 TLR9^CHERRY cells were pre-treated with control or P7-Pen peptide for 1 hr, then stimulated with the Class B CpG oligonucleotide CpG 2006 ODN (a human-specific TLR9 agonist). […] Thus, P7 peptide could also be used to inhibit the expression of selected cytokines mediated by TLR9 in human disease.
# TLR4 = test: Western blot of LPS signalling in murine immortalized BMDMs; type: cell-based, mouse; details: murine macrophages, 10 μM
# Protocol: Western blot analysis of lysates from cells pretreated with media containing controls (water, DMSO or 10 μM control peptide C3-Pen) or P7-Pen peptide for 30 min before stimulation with LPS (K12 LPS, 100 ng/ml) for designated time periods.
# Protein pellets were dissolved by heating protein pellets for 10 min at 95° C. in buffer containing 4 M urea, 1 SDS (Sigma) and NuPAGE® LDS Sample Buffer (4×) (Thermo Fisher Scientific). Otherwise, lysates were made using 1× RIPA lysis buffer (150 mM NaCl, 50 mM TrisHCl (pH 7.5), 1% Triton X100, 5 mM EDTA, protease inhibitors, phosphatase inhibitors). For Western blot analysis we used pre-cast protein gels NuPAGE™ Novex™ and iBlot Transfer Stacks iBlot Gel Transfer Device (Thermo Fisher Scientific). Proteins were transferred to the membrane by dry-blotting using iBlot® 2 NC Regular/Mini Stacks (Life Technologies) in the iBlot 2 Dry Blotting System (Life Technologies). After secondary antibody incubation, membranes were washed and incubated with HRP substrate solution (SuperSignal™ West Femto Maximum Sensitivity Substrate (Thermo Fisher Scientific)). Images were taken using Odyssey® Fc (LI-CORE). Quantification graphs were generated by the analysis of signal intensities for protein bands (protein of interest and endogenous loading control—β-tubulin from the same membrane) using Odyssey software (LI-CORE). Data were normalised to the expression levels of β-tubulin and presented as a relative fold change to the control sample.
# In addition, pre-treatment of murine macrophages with P7-Pen inhibited LPS-mediated phosphorylation of TBK1 and IκBα, and decreased phosphorylation of p38 MAPK (FIG. 23).
# SW480 cells = test: Proliferation of SW480 colon cancer cells; type: cell-based, human; details: 15 μM, 48 h, with or without LPS 100 ng/ml
# Protocol: SW480 cells were seeded and incubated in medium alone or supplemented with water, 15 μM penetratin, 15 μM P7-Pen or 15 μM P7-N4-Pen. Under each condition cells were incubated both without LPS and with 100 ng/ml LPS. Cells were incubated for 48 hours then counted. […] The presence of LPS made no difference to the effect of the peptides on proliferation. Results are based on 3 biological replicates, error bars show standard deviation of mean.
# SW480 (ATCC CCL-228) and Jurkat (ATCC Clone E6-1; TIB-152) cells were cultured in RPMI 1640 (Sigma-Aldrich, Schnelldorf, Germany) supplemented with 10% heat-inactivated FCS, penicillin/streptomycin (Life Technologies) and 20 mM L-Glutamine. THP-1 cells (ATCC TIB-202) were cultured in RPMI-1640 (high-glucose, ATCC) supplemented with 10% heat inactivated foetal calf serum (FCS), 100 nM penicillin/streptomycin and 5 μM β-mercaptoethanol (Sigma). THP-1 cells were differentiated with 60 ng/ml phorbol 12-myristate 13-acetate (PMA, Sigma) for 72 h, followed by 24 or 48 h in medium without PMA.
# The peptides were tested against the SW480 cell line in the presence and absence of LPS.
substance,measurement,setting,value
Ac-ITVYASVTLTGRQIKIWFQNRRMKWKK-NH2 [Peptide P7-Pen],TLR7-mediated cytokine expression,murine TLR7,no effect
same,TLR9-mediated IFNβ and CXCL10 expression,TLR9,strongly inhibited
same,TLR9-mediated expression of TNF and IL-1β,TLR9,to some extent inhibited
same,LPS-mediated phosphorylation of TBK1 and IκBα,TLR4,inhibited
same,phosphorylation of p38 MAPK,TLR4; LPS,decreased
same,effect on proliferation of SW480 cells,SW480 cells,a degree of anti-proliferative effect
